Results published in PMC11697777, “How ligands modulate the gastric H,K-ATPase activity and its inhibition by tegoprazan” (The Journal of Biological Chemistry, 2024).
Read-outs that look alike come from different tables or passages of the source.

Molecular target: T1, gastric H,K-ATPase (Sus scrofa, UniProt P19156)
T1 construct: We prepared H,K-ATPase (EC 7.2.2.19)-enriched membrane vesicles according to Sachs et al; from tissue; host or cells: gastric membrane vesicles
Assay: H,K-ATPase activity (Pi release from ATP) inhibition, steady-state kinetic analysis
Type: biochemical, hog
Details: for IC50: 10 mM KCl, read-out: K0.5 for inhibition of ATPase activity; for Kd: fit of model III (binding to E2P and E1ATP), 37 °C
Method: We prepared H,K-ATPase (EC 7.2.2.19)-enriched membrane vesicles according to Sachs et al. ([36]), with slight modifications. The number of nucleotide sites measured under optimal conditions (2.2 mM ATP, 4 mM MgCl2, 0.25 mM EDTA in 25 mM imidazole–HCl, pH 7.4 at 25 °C) was 1.4 nmol per mg of protein. This preparation is essentially free of contamination with Na,K-ATPase, as evidenced by the lack of ouabain-sensitive activity. 0.4 to 0.6 mg alamethicin per milligram protein was used to permeabilize the vesicles.
ATP hydrolysis by H,K-ATPase was measured by following the time course of Pi release at 37 °C; linearity was always checked in order to ensure initial rate conditions. Pi concentration was determined according to the method described by Baginski et al. ([37]) Incubations were performed at 37 °C in media containing 8 μg protein ml^−1, 2 mM ATP, 4 mM MgCl2, and 0.25 mM EDTA in 20 mM imidazole – 20 mM Tris (varying pH) in a final volume of 0.25 ml. KCl concentrations varied between 0 and 100 mM, using choline chloride to adjust total monovalent salt concentration to 150 mM. Reaction blanks were determined by measuring ATP hydrolysis in media containing vanadate. For experiments at variable pH, a buffer combination of 20 mM imidazole-HCl and 20 mM Tris–HCl was used. Tegoprazan and SCH28080 were dissolved in DMSO. The final DMSO concentration in the reaction media was 1%.
were fitted to the data of ATPase activity by nonlinear regression based on the Gauss–Newton algorithm by commercial programs ([38]). Kis parameters are apparent dissociation constants expressed in concentration units, whereas the ais parameters are coefficients with units of activity. A methodical exploration of the equation that best fits each set of results was performed. We first determined the degree of the polynomials in the numerator and the denominator (considering the restriction of n ≤ d and m ≤ d to conform to steady-state equations for enzymes) and then evaluated the contribution of terms of intermediate degree. The goodness of fit of a given equation to the experimental results was evaluated by the AICc ([39]) defined as(5) AICc=N·ln(SS/N)+2·(K+1)·N/(N−K−2) with N: number of data, K: number of parameters, and SS: sum of weighted square residual errors. This criterion allows one to select among multiple equations, the one that best describes the behavior of the experimental data using the least number of parameters, that is the lower value of AICc.
The equations of activity as a function of ligands for each kinetic model were attained using the Mathematica for Windows program. To determine the parameters that will be used to simulate the data, the rate constants and pKa values were fitted to the results using a procedure based on the Gauss–Newton algorithm until the SD of the residual errors reaches a minimal value.

T1 sequence (P19156 2-1034 limits assumed): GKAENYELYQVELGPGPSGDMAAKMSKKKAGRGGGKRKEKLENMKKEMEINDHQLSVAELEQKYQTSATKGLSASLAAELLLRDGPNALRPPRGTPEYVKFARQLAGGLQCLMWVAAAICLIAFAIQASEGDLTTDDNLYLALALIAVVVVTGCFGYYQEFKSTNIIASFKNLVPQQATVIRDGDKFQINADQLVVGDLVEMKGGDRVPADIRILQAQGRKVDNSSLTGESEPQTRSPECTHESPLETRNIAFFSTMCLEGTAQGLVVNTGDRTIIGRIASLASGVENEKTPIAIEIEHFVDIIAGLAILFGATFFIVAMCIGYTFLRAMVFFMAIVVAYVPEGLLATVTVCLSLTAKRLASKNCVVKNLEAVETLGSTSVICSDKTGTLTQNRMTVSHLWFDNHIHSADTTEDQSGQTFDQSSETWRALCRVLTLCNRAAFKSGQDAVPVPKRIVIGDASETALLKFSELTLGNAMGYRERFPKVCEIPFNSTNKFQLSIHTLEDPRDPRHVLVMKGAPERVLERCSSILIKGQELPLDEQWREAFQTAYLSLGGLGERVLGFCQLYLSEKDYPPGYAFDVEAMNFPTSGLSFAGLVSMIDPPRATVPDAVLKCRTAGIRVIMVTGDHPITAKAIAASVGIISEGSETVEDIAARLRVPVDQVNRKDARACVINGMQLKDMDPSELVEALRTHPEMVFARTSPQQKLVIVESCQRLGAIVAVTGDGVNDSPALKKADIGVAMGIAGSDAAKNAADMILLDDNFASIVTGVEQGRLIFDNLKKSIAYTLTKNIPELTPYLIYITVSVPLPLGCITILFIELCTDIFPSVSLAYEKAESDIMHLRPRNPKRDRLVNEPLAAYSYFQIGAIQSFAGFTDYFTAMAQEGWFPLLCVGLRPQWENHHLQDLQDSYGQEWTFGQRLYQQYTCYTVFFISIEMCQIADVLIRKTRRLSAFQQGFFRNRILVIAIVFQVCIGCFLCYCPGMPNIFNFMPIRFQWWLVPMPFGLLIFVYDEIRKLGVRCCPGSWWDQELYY
T1 sequence (P18434 whole entry partner): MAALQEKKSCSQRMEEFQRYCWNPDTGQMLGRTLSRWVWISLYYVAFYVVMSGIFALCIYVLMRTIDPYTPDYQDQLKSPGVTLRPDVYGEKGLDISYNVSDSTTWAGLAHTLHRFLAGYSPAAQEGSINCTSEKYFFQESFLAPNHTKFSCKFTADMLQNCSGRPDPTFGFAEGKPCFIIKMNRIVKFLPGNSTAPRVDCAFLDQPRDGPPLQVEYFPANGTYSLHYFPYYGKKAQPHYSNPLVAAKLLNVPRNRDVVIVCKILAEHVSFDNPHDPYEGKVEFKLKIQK

Cc1nc2c(O[C@H]3CCOc4cc(F)cc(F)c43)cc(C(=O)N(C)C)cc2[nH]1 [tegoprazan, (S)-4-((5,7-difluorochroman-4-yl)oxy)-N,N,2-trimethyl−1Hbenzo[d]imidazole-6-carboxamide]
effect of inhibitor on K0.5 for potassium (Equation 3) ([K+] 0-15 mM, pH 7.2): increase in K0.5 | effect of inhibitor on Vmax (Equation 3) ([K+] 0-15 mM, pH 7.2): decrease in Vmax | effect of inhibitor on K1, apparent high-affinity dissociation constant for K+ (Equation 1) ([K+] 0-75 mM): increase in K1 | effect of inhibitor on K2, apparent low-affinity dissociation constant for K+ (Equation 1) ([K+] 0-75 mM): slight increase | effect of inhibitor on a1, theoretical maximal activity (Equation 1) ([K+] 0-75 mM): decreases as a function of the inhibitor concentration | Kii, equilibrium constant for low-affinity binding (E2KATP), model II (fit of model II (binding to E2P and E2KATP), [K+] 0-75 mM): 3.55 µM | Ki (fit of model II (binding to E2P and E2KATP), [K+] 0-75 mM, read-out: Ki, equilibrium constant for high-affinity binding (E2P), model II): 410 nM | IC50 (pH 6.2): 890 ± 40 nM | IC50 (pH 7.2): 3250 ± 290 nM | Kd (pH 7.2, [K+] 0-75 mM, read-out: apparent Kd / apparent affinity constant, high-affinity binding (Ki) to E2P, model III): 560 ± 40 nM | Kd (pH 7.2, [K+] 0-75 mM, read-out: apparent Kd / apparent affinity constant, low-affinity binding (Kii) to E1ATP, model III): 2700 ± 240 nM
